We go through nine compounds from PMC10087458 (Chemical Biology & Drug Design, 2022).

Each structure is given as a SMILES string. ≈ marks a conversion by molar mass, not a printed value. Entries after “also recorded” stand apart in the source; their conditions may differ. Where two headings read alike, the source gives them in different places.

For data set [1], the system named is Mycobacterium tuberculosis in a persistent state. The arrangement: method as in Barrow et al., [2003]. The conditions noted are these: ref Barrow et al., [2003]; cited from earlier work.
Data set [2] concerns murine macrophages RAW 264.7. Description: Resazurin cytotoxicity assay on RAW 264.7 macrophages. The class given is cell-based. The settings on record: Mus musculus.
The test system of data set [3] is Mycobacterium bovis BCG (ATCC35734). Description: microbe, parasite or virus in culture. The class given is cell-based. The settings on record: Mycobacterium tuberculosis variant bovis BCG, read-out: MIC90 M. bovis BCG, HT-SPOTi; lowest concentration inhibiting 90% of the bacteria.
Data set [4] has as its system adenosine receptors in RAW264.7 cells. Description: cAMP accumulation in RAW264.7 macrophages (cAMP ELISA). The class given is cell-based, murine. The conditions noted are these: for increase in cAMP compared with forskolin: 1 μM, 10 min incubation, PDE inhibitor pre-treatment, positive control forskolin 1 μM.
Data set [5] is described as follows: Equilibrium solubility, modified shake-flask method with HPLC quantification. It is filed as physicochemical. The settings on record: shake-flask 24 h, HPLC 230 nm. As for the experimental part:
The equilibrium solubility of ADN‐PEG‐conjugates was determined using a modified version of the shake‐flask method (Plöger et al., [2018]). An excess of the ADN‐PEG‐conjugate was added to either phosphate buffer solution (PBS buffer) or deuterium‐depleted water (DDW) at a pH value of 6.8. The resulting suspension was shaken at 37°C until a (thermodynamic) equilibrium was reached between saturated solution and undissolved solid. Solubility quantification of the samples was achieved using high‐pressure liquid chromatography (HPLC) analysis.
An excess amount of the PEG-ADN conjugates was added into a 20 mL glass vial containing either phosphate buffer solution or DDW. The samples were placed into a shaking water bath at 150 rpm at 37ᵒC for 24h. The supernatant was withdrawn from the suspension using a micro centaur MSB010.CX2.5 centrifuge (MSE Ltd., London, UK) at 1.3 × 10,000 rpm for 1 min.

Data set [6] has as its system Mycobacterium aurum (ATCC 23366). Briefly: HT-SPOTi anti-mycobacterial assay, M. aurum. The class given is cell-based. The settings on record: Mycolicibacterium aurum.
Data set [7] concerns Mycobacterium bovis BCG (ATCC35734). The settings on record: ref Ferguson et al., [2020]; cited from earlier work.
In data set [8] the test system is Mycobacterium aurum (ATCC 23366). More on the design: method as in Ferguson et al., [2020]. The settings on record: ref Ferguson et al., [2020]; cited from earlier work.
The mark [9] stands for this setting: RAW264.7, 50% inhibition of cell proliferation, resazurin micro dilution method, RAW 264.7 murine macrophages, read-out: GIC50 RAW 264.7.
Setting [10] is: aqueous buffer, thermodynamic from solid, phosphate buffer solution pH 6.8, 37°C, read-out: Solubility (mean ± SD) PBS.
[11] abbreviates: pH 7, thermodynamic from solid, deuterium-depleted water (DDW), 37°C, read-out: Solubility (mean ± SD) DDW.
Where [12] appears, read: ATCC23366, HT-SPOTi, lowest concentration inhibiting 90% of the bacteria, read-out: MIC90 M. aurum.

The term solubility denotes the concentration that dissolves in the medium under given conditions.

Consider `Cc1nc(N)c2ncn([C@@H]3O[C@H](CO)[C@@H](O)[C@H]3O)c2n1` [2‐methyl adenosine], for which the “growth of Mycobacterium tuberculosis in a persistent state (in words)” value in data set [1] is on record as “inhibited the growth”.

For the compound `CS(=O)(=O)OCCOCCOCCOCCOCC#Cc1nc(N)c2ncn([C@@H]3O[C@H](CO)[C@@H](O)[C@H]3O)c2n1` [10b], in data set [2] (setting [9]), the IC50 was 250 µg/mL (≈ 434 µM). The MIC90 in data set [3] and in data set [6] (setting [12]) was 250 µg/mL (≈ 434 µM) throughout. Moreover, the “cAMP accumulation in RAW264.7 cells (in words)” value in data set [4] is “significant increase; also recorded: considerable increase”. Further, the “increase in cAMP compared with forskolin” value in data set [4] stood at 42%. Besides, the solubility at 24 h in data set [5] (setting [10]) came out at 1220 ± 260 µg/mL (≈ 2120 µM); in data set [5] (setting [11]), 1330 ± 320 µg/mL (≈ 2310 µM).

`CS(=O)(=O)OCCOCCOCCOCCOCCOCC#Cc1nc(N)c2ncn([C@@H]3O[C@H](CO)[C@@H](O)[C@H]3O)c2n1` [10c]: the IC50 in data set [2] (setting [9]) amounted to 250 µg/mL (≈ 403 µM). For the same compound, the MIC90 in data set [3] and in data set [6] (setting [12]) was 250 µg/mL (≈ 403 µM) each time.

As to `CC1(C)O[C@@H]2[C@H](O1)[C@@H](CO)O[C@H]2n1cnc2c(N)nc(C#CCOCCOCCOCCOCCOS(C)(=O)=O)nc21` [11b], in data set [2] (setting [9]), the IC50 was 62.5 µg/mL (≈ 102 µM). Also, the MIC90 in data set [3] and in data set [6] (setting [12]) was 500 µg/mL (≈ 812 µM) in each case. The “cAMP accumulation in RAW264.7 cells (in words)” value in data set [4] is reported as “significant increase; also recorded: considerable increase”. In addition, in data set [4], the “increase in cAMP compared with forskolin” value is 46%. Further, the solubility at 24 h came out at 1180 ± 190 µg/mL (≈ 1920 µM) in data set [5] (setting [10]) and 1160 ± 640 µg/mL (≈ 1880 µM) in data set [5] (setting [11]).

With `CC1(C)O[C@@H]2[C@H](O1)[C@@H](CO)O[C@H]2n1cnc2c(N)nc(C#CCOCCOCCOCCOCCOCCOS(C)(=O)=O)nc21` [11c], the IC50 in data set [2] (setting [9]) turned out to be 62.5 µg/mL (≈ 94.7 µM). Besides, the MIC90 in data set [3] was found to be 250 µg/mL (≈ 379 µM); in data set [6] (setting [12]) it was 125 µg/mL (≈ 189 µM).

As for `CC1(C)O[C@@H]2[C@H](O1)[C@@H](COS(N)(=O)=O)O[C@H]2n1cnc2c(N)nc(C#CCOCCOCCOCCOCCOCCOS(C)(=O)=O)nc21` [12c], in data set [2] (setting [9]), the IC50 is 31.2 µg/mL (≈ 42.2 µM). The figures for the MIC90 in data set [3] and in data set [6] (setting [12]) were 500 µg/mL (≈ 677 µM) and 62.5 µg/mL (≈ 84.6 µM), respectively.

For `Nc1ncnc2c1ncn2[C@@H]1O[C@H](CO)[C@@H](O)[C@H]1O` [Adenosine, adenosine, reference compound], the “increase in cAMP compared with forskolin” value in data set [4] is given as 48%.

As for `NNC(=O)c1ccncc1` [Isoniazid, isoniazid, reference compound], in data set [2] (setting [9]), the IC50 is 500 µg/mL (≈ 3650 µM). The results for the MIC90 in data set [3] and in data set [6] (setting [12]) were 0.49 µg/mL (≈ 3.57 µM) and 7.81 µg/mL (≈ 56.9 µM), respectively.

On to `Nc1nc(I)nc2c1ncn2[C@@H]1O[C@H](CO)[C@@H](O)[C@H]1O` [compound 9, 2‐iodoadenosine, reference compound], for which the IC50 in data set [2] (RAW264.7, read-out: GIC50 RAW 264.7) was 250 µg/mL (≈ 636 µM). For the same compound, the MIC90 in data set [3] is 15.6 µg/mL (≈ 39.7 µM); in data set [6] (ATCC23366, read-out: MIC90 M. aurum), 125 µg/mL (≈ 318 µM). For the same compound, the “bactericidal activity against M. bovis (in words)” value in data set [7] is on record as “exhibited bactericidal activity”. For the same compound, the “bactericidal activity against M. aurum (in words)” value in data set [8] is “not”.
